Measured values as given in patent EP0366451A2, “The use of oxidized polyamines, especially NN'-Bis-(3-propionaldehyde)-1-4-diaminobutane (sperminedialdehyde) as immunosuppressive agents” (ORTHO PHARMACEUTICAL CORPORATION, priority 1988, dated 1990).

Assays:
[1] = system: NADP-linked cytosolic ALDH; assay: NADP-linked cytosolic ALDH assay, L1210/CPA cells; type: biochemical, Murine; settings: SDA as substrate, L1210/CPA cells
Protocol: (§1) Cultured murine leukemic cells and livers (excised from mice immediately after cervical dislocation) were homogenized in 3 volumes of ice-cold 1.15% KCl and 1 mM EDTA. The homogenate was centrifuged at 100,000 g for 45 min and the resulting supernatant was used to measure cytosolic ALDH activity. For particulate ALDH assay, the pellet (and homogenate for total ALDH) was resuspended in homogenizing buffer and treated with 0.25% Triton X-100 for 30 min at 4°C. The solubilized preparations were centrifuged at 48,000 g for 30 min and the supernatants were drawn off for ALDH determinations.
ALDH activity was measured by monitoring the reduction of NAD or NADp for 5-6 min at […] at 37°C in DU70 spectrophotometer (Beckman). The assay mixture contained 50 mM potassium phosphate buffer, pH 7.4, 2.0 mM NAD (or NADP) and 1.0 mM EDTA. The reaction was started by adding the substrate (SDA or other aldehyde) to the prewarmed (5 min at 37°C) assay mixture containing enzyme preparation. Pyrazole (0.1 mM) was added particularly for liver enzyme, to inhibit alcohol dehydrogenase. The apparent Km and maximum velocity (Vmax) values were calculated using a Lineweaver-Burk plot based on the estimation of the slope by regression analysis. Enzyme activity was expressed as mU (nmoles/min) per mg of protein. Protein contents were determined by the Bradford method, using bovine serum albumin as the standard. […]

[2] = system: ALDH; assay: ALDH assay in the mitochondrial fraction of L1210/CPA or mouse liver; type: biochemical; settings: SDA up to 2.5 mM
Protocol: as §1
ALDH activity was measured by monitoring the reduction of NAD or NADp for 5-6 min at […] at 37°C in DU70 spectrophotometer (Beckman). The assay mixture contained 50 mM potassium phosphate buffer, pH 7.4, 2.0 mM NAD (or NADP) and 1.0 mM EDTA. The reaction was started by adding the substrate (SDA or other aldehyde) to the prewarmed (5 min at 37°C) assay mixture containing enzyme preparation. Pyrazole (0.1 mM) was added particularly for liver enzyme, to inhibit alcohol dehydrogenase. The apparent Km and maximum velocity (Vmax) values were calculated using a Lineweaver-Burk plot based on the estimation of the slope by regression analysis. Enzyme activity was expressed as mU (nmoles/min) per mg of protein. Protein contents were determined by the Bradford method, using bovine serum albumin as the standard.

[3] = system: Human B lymphocytes; assay: Pokeweed mitogen driven human B cell proliferation after 1 hour incubation; type: cell-based; settings: compared with T cells; Figure 1
Protocol: Human T & B lymphocytes were incubated separately with different concentrations of spermine dialdehyde in vitro for 1 hour. Cells were washed extensively and set up in a PHA (for T cell) or PWM (B cell) proliferation assay. A graph is depicted wherein percentage of response is plotted as a function of concentration of spermine dialdehyde.
Peripheral blood lymphocytes (PBL) were obtained from the blood of normal donors by using standard Ficoll-Hypaque gradient techniques. The T and non-T cells were separated by standard sheep red blood cell (SRBC) rosetting technique. Briefly, 5 x 10⁶/ml PBL were incubated with 1% neuraminidase-treated SRBC, and rosetted cells were separated from non-rosetted cells in a Ficoll-Hypaque gradient. The rosetted cells were designated as T cells. Purified B lymphocytes were obtained from non-rosetted cells by removal of residual T cells using the Pan T monoclonal antibody OKT 11 and complement.
T cell proliferation: 7 x 10⁴ - 10⁵ human T lymphocytes were cultured in flat bottom microtiter plates (Flow) in the presence of 0.1% PHA-P or 1/64 PWM for 4 days. 3H-thymidine (0.1 MCi/well) was added for the last 6 hours of the culture period. […] Cell associated radioactivity was determined by scintillation counting in an automated counter. All of the results were expressed as % response calculated according to the formula: [formula] […]

[4] = system: C57BL mice; assay: In vivo generation of cytotoxic T cells in mice; settings: Figure 5
Protocol: C57BL mice were injected i.p. daily with different doses of spermine dialdehyde. On day 2, they also received 107 DBA spleen cells. Seven days later, animals were sacrificed and percentage of cytotoxic T cells (measured by % specific lipes generated in the spleen was calculated and plotted as a function of concentration of spermine dialdehyde.
In vivo generation of cytotoxic T cells was performed according to the method described by Faanes et al., Clin. Esp. Immunol., Vol. 27 pp. 502-506 (1977). C57BL mice were arranged into groups of 10 and injected IP with different doses of spermine dialdehyde or control preparation. Two days after first injection, they received i.p. injection of 10⁷ DBA spleen cells which were prepared as described previously. Ten days after cell injection, C57 mice were sacrificed by cervical dislocation and cytotoxic T cells generated in the spleen were quantified by measuring the ability of those cells to lyse 51Cr labelled PB15 target cells (a mastocytoma, cells of DBA origin or Con A stimulated DBA spleen blasts). P815 cells or blasts were suspended at 10⁷ cells/ml and incubated with 200 MCi of 51Cr for 1 hour at 37°C. […] After incubation, 100 Ml of supernatant was removed and counted in the gamma counter. The percentage of cytotoxic T cells was calculated: [formula] […]

O=CCCNCCCCNCCC=O [SDA, NN′-Bis-(3-propionaldehyde)-1-4-diaminobutane]
activity of NADP-linked cytosolic ALDH [1]: 3.0-3.5 mU/mg protein
ALDH activity in the mitochondrial fraction [2]: could not be measured
suppression of B lymphocyte proliferation [3]: a much greater quantity was required
ED (maximum) ([4]; Mus musculus, T-cell, ip, read-out: dose that appeared to attain maximum suppression of cytotoxic T cell generation): 10 mg/kg
generation of cytotoxic T cells ([4]; i.p.): suppressed the generation of cytotoxic T cells in a dose related manner
